Measured values from patent publication US20020197286A1, “Method for preventing and treating skin aging” (priority 2001, published 2002).
Read-outs that look alike come from different tables or passages of the source.

Columns and labels:
[1] = Plasma protein binding; type: in vitro ADME; details: human
Text: (§1) Volume of distribution of norethindrone and EE ranges from 2 to 4 L/kg. Plasma protein binding of both steroids is extensive (>95%); norethindrone binds to both albumin and SHBG, whereas EE binds only to albumin.

[2] = Distribution: volume of distribution; details: human, in vivo
Text: as §1

[3] = Multiple-dose pharmacokinetics of 1 mg NA/10 mcg EE tablets in 18 postmenopausal women; type: in vivo, human; details: for Cmax / AUC(0-t) / Tmax / half-life: female, human; for AUC(0-t): read-out: AUC(0-24); for half-life: read-out: t½ (converted)
[4] = Absorption and bioavailability after oral administration of femhrt ⅕ / NA/EE tablets; type: in vivo; details: for bioavailability: human, after oral dosing, first-pass metabolism, read-out: absolute bioavailability
Experimental: The term “effective dose” means the amount of a progestin and an estrogen required to delay the onset or treat symptoms manifested by skin aging or acne in a particular patient. […] Norethindrone acetate and EE are rapidly absorbed from femhrt ⅕ tablets, with maximum plasma concentrations of norethindrone and EE generally occurring 1 to 2 hours postdose. […] For example, a method for preventing and treating acne in a patient in need of treatment comprising administering an effective amount of Estrostep which contains 1 mg NA and a gradually increasing dose of ethinyl estradiol; 20 mcg×5 days, 30 mcg×7 days, and 35 mcg×9 days in a pharmaceutically acceptable carrier. Other dosage forms may be administered.
Norethindrone acetate and EE are rapidly absorbed from femhrt ⅕ tablets, with maximum plasma concentrations of norethindrone and EE generally occurring 1 to 2 hours postdose. […] The extent of norethindrone absorption is increased by 27% following administration of NA/EE tablets with food.

[5] = Population pharmacokinetic analysis of NA/EE tablets; details: for average steady-state concentrations (Css): femhrt ⅕ (1 mg NA/5 mcg EE), estimated from population pharmacokinetic analysis
Experimental: However, the multiple-dose pharmacokinetics were studied at a dose of 1 mg NA/10 mcg EE in 18 postmenopausal women.

[6] = plasma, oral, Single-Dose (Day 1), 1 mg NA/10 mcg EE tablets, Mean (SD)
[7] = plasma, oral, Steady-State (Day 87), 1 mg NA/10 mcg EE tablets, Mean (SD)

C#C[C@]1(O)CC[C@H]2[C@@H]3CCC4=CC(=O)CC[C@@H]4[C@H]3CC[C@@]21C [Norethindrone, norethindrone]
fraction unbound [1]: < 0.05
Vd [2]: 2 to 4 L/kg
CL/F ([3]; Single-Dose (Day 1), 1 mg NA/10 mcg EE tablets, Mean (SD)): 588 (416) mL/min
CL/F ([3]; Steady-State (Day 87), 1 mg NA/10 mcg EE tablets, Mean (SD)): 226 (139) mL/min
Cmax [3, 6]: 6 ng/mL
AUC(0-t) [3, 6]: 29.7 ng·h/mL
Tmax ([3]; plasma, oral, Single-Dose (Day 1), 1 mg NA/10 mcg EE tablets, Mean (SD), read-out: Tmax): 1.8 h
half-life [3, 6]: 10.3 h
Cmax [3, 7]: 10.7 ng/mL
AUC(0-t) [3, 7]: 81.8 ng·h/mL
Tmax ([3]; plasma, oral, Steady-State (Day 87), 1 mg NA/10 mcg EE tablets, Mean (SD), read-out: Tmax): 1.8 h
half-life [3, 7]: 13.3 h
increase of extent of absorption with food ([4]; NA/EE tablets with food): 27%
bioavailability ([4]; in vivo): ~64%
dose proportionality of mean steady-state concentrations ([5]; 1 mg NA/5 mcg EE and 1/10 compared to 0.5 mg NA/2.5 mcg EE tablets): slightly more than proportional to dose
average steady-state concentrations (Css) [5]: 2.6 ng/mL

C#C[C@]1(O)CC[C@H]2C3CCc4cc(O)ccc4[C@H]3CCC21C (stereo partly drawn) [Ethinyl Estradiol]
fraction unbound [1]: < 0.05
Vd [2]: 2 to 4 L/kg
Tmax ([3]; in vivo, Tmax): 2.2 h
bioavailability ([4]; in vivo): ~55%
effect of high fat meal on absorption ([4]; in vivo): decreases rate but not extent
average steady-state concentrations (Css) [5]: 0.0114 ng/mL
dose proportionality of mean steady-state plasma concentrations ([5]; in vivo): proportional to dose
dose proportionality of steady-state concentrations ([5]; in vivo): less than proportional increase
effect of age on pharmacokinetics ([5]; in vivo): not affected by age

C#C[C@]1(OC(C)=O)CC[C@H]2C3CCC4=CC(=O)CCC4[C@H]3CCC21C (stereo partly drawn) [NA, (17-alpha)-17-(acetyloxy)-19-norpregna-4-en-20-yn-3-one]
deacetylation to norethindrone ([4]; in vivo, po): completely and rapidly deacetylated
effect of age on pharmacokinetics ([5]; in vivo): not affected by age
